# Laboratory results: ChEMBL document CHEMBL6096706, “Discovery of WDR5-MLL1 and HDAC Dual-Target Inhibitors for the Treatment of Acute Myeloid Leukemia” (J Med Chem, 2025)
# Columns and labels:
# MV4-11 [1] = assay: Induction of apoptosis in human MV4-11 cells assessed as viable cells at 200 nmol/L incubated for 72 hrs by Annexin V/PI staining based flow cytometry analysis (reference value: 90.23%); format: functional; conditions: Homo sapiens, MV4-11, read-out: Activity
# [2] = Toxicity in mouse implanted in human MV4-11 cells assessed as spleen damage at 10 to 30 mg/kg, ip administered daily for 17 days by H and E staining based analysis; format: organism-based; conditions: in vivo, 408 h, dose 10-30 mg/kg, time 17 day
# MV4-11 [3] = assay: Induction of apoptosis in human MV4-11 cells assessed as necrotic cells at 200 nmol/L incubated for 72 hrs by Annexin V/PI staining based flow cytometry analysis (reference value: 0.46%); format: functional
# MV4-11 [4] = assay: Induction of apoptosis in human MV4-11 cells assessed as early apoptotic cells at 200 nmol/L incubated for 72 hrs by Annexin V/PI staining based flow cytometry analysis (reference value: 4.17 %); format: functional
# [5] = Toxicity in mouse implanted in human MV4-11 cells assessed as heart damage at 10 to 30 mg/kg, ip administered daily for 17 days by H and E staining based analysis; format: organism-based; conditions: in vivo, 408 h, dose 10-30 mg/kg, time 17 day
# MV4-11 [6] = assay: Induction of apoptosis in human MV4-11 cells assessed as late apoptotic cells at 200 nmol/L incubated for 72 hrs by Annexin V/PI staining based flow cytometry analysis (reference value: 5.14%); format: functional
# [7] = Toxicity in mouse implanted in human MV4-11 cells assessed as liver damage at 10 to 30 mg/kg, ip administered daily for 17 days by H and E staining based analysis; format: organism-based; conditions: in vivo, 408 h, dose 10-30 mg/kg, time 17 day
# [8] = Toxicity in mouse implanted in human MV4-11 cells assessed as lung damage at 10 to 30 mg/kg, ip administered daily for 17 days by H and E staining based analysis; format: organism-based; conditions: in vivo, 408 h, dose 10-30 mg/kg, time 17 day
# MV4-11 [9] = assay: Antiproliferative activity against human MV4-11 cells assessed as growth inhibition at 0.4 uM measured after 72 hrs in presence of 0.1 uM of vorinostat by CellTiterGlo assay; format: functional; conditions: read-out: GI
# MV4-11 [10] = assay: Antiproliferative activity against human MV4-11 cells assessed as growth inhibition at 0.05 uM measured after 72 hrs in presence of 0.4 uM of vorinostat by CellTiterGlo assay; format: functional; conditions: read-out: GI
# MV4-11 [11] = assay: Antiproliferative activity against human MV4-11 cells assessed as growth inhibition at 0.1 uM measured after 72 hrs in presence of 0.4 uM of vorinostat by CellTiterGlo assay; format: functional; conditions: read-out: GI
# MV4-11 [12] = assay: Antiproliferative activity against human MV4-11 cells assessed as growth inhibition at 0.2 uM measured after 72 hrs by CellTiterGlo assay; format: functional; conditions: read-out: GI
# MV4-11 [13] = assay: Antiproliferative activity against human MV4-11 cells assessed as growth inhibition at 0.1 uM measured after 72 hrs in presence of 0.05 uM of vorinostat by CellTiterGlo assay; format: functional; conditions: read-out: GI
# MV4-11 [14] = assay: Induction of apoptosis in human MV4-11 cells assessed as viable cells at 600 nM incubated for 72 hrs in presence of vorinostat by Annexin V/PI staining based flow cytometry analysis (reference value: 96.68%); format: functional; conditions: read-out: Activity
# MV4-11 [15] = assay: Antiproliferative activity against human MV4-11 cells assessed as growth inhibition at 1 uM measured after 72 hrs in presence of 0.4 uM of vorinostat by CellTiterGlo assay; format: functional; conditions: read-out: GI
# MV4-11 [16] = assay: Antiproliferative activity against human MV4-11 cells assessed as growth inhibition at 0.1 uM measured after 72 hrs in presence of 0.2 uM of vorinostat by CellTiterGlo assay; format: functional; conditions: read-out: GI
# MV4-11 [17] = assay: Antiproliferative activity against human MV4-11 cells assessed as growth inhibition at 2 uM measured after 72 hrs in presence of 0.5 uM of vorinostat by CellTiterGlo assay; format: functional; conditions: read-out: GI
# MV4-11 [18] = assay: Antiproliferative activity against human MV4-11 cells assessed as growth inhibition at 0.5 uM measured after 72 hrs by CellTiterGlo assay; format: functional; conditions: read-out: GI
# MV4-11 [19] = assay: Induction of apoptosis in human MV4-11 cells assessed as late apoptotic cells at 400 nM incubated for 72 hrs in presence of vorinostat by Annexin V/PI staining based flow cytometry analysis (reference value: 6.42 %); format: functional
# MV4-11 [20] = assay: Antiproliferative activity against human MV4-11 cells assessed as growth inhibition at 0.4 uM measured after 72 hrs in presence of 1 uM of vorinostat by CellTiterGlo assay; format: functional; conditions: read-out: GI
# MV4-11 [21] = assay: Antiproliferative activity against human MV4-11 cells assessed as growth inhibition at 2 uM measured after 72 hrs in presence of 0.1 uM of vorinostat by CellTiterGlo assay; format: functional; conditions: read-out: GI
# MV4-11 [22] = assay: Antiproliferative activity against human MV4-11 cells assessed as growth inhibition at 0.05 uM measured after 72 hrs in presence of 0.05 uM of vorinostat by CellTiterGlo assay; format: functional; conditions: read-out: GI
# MV4-11 [23] = assay: Antiproliferative activity against human MV4-11 cells assessed as growth inhibition at 0.5 uM measured after 72 hrs in presence of 0.05 uM of vorinostat by CellTiterGlo assay; format: functional; conditions: read-out: GI
# MV4-11 [24] = assay: Antiproliferative activity against human MV4-11 cells assessed as growth inhibition at 0.05 uM measured after 72 hrs by CellTiterGlo assay; format: functional; conditions: read-out: GI
smiles,measurement,setting,value
Cc1c(F)c(N)cc(C(=O)Nc2cc(-c3ccc(C(=O)NCc4ccc(/C=C/C(=O)NO)cc4)cc3)ccc2N2CCN(C)CC2)c1Cl,viability at 0.2 µM,MV4-11 [1],40.3%
same,Activity,[2],Non-toxic
same,Activity,MV4-11 [3],0.41%
same,Activity,MV4-11 [4],53.31%
same,Activity,[5],Non-toxic
same,Activity,MV4-11 [6],6.01%
same,Activity,[7],Non-toxic
same,Activity,[8],Non-toxic
Cc1c(F)c(N)cc(C(=O)Nc2cc(-c3ccc(C(=O)N4CCOCC4)cc3)ccc2N2CCN(C)CC2)c1Cl,inhibition of growth at 0.4 µM,MV4-11 [9],55%
same,inhibition of growth at 0.05 µM,MV4-11 [10],45.1%
same,inhibition of growth at 0.1 µM,MV4-11 [11],59%
same,inhibition of growth at 0.2 µM,MV4-11 [12],23.9%
same,viability at 0.2 µM,MV4-11 [1],88.5%
same,inhibition of growth at 0.1 µM,MV4-11 [13],34.4%
same,viability at 0.6 µM,MV4-11 [14],9.67%
same,Activity,MV4-11 [3],0.58%
same,inhibition of growth at 1 µM,MV4-11 [15],68.7%
same,Activity,MV4-11 [4],7.36%
same,inhibition of growth at 0.1 µM,MV4-11 [16],49.3%
same,inhibition of growth at 2 µM,MV4-11 [17],95.2%
same,Activity,MV4-11 [6],3.51%
same,inhibition of growth at 0.5 µM,MV4-11 [18],27.5%
same,Activity,MV4-11 [19],16.81%
same,inhibition of growth at 0.4 µM,MV4-11 [20],90.8%
same,inhibition of growth at 2 µM,MV4-11 [21],68.6%
same,inhibition of growth at 0.05 µM,MV4-11 [22],30.1%
same,inhibition of growth at 0.5 µM,MV4-11 [23],50.1%
same,inhibition of growth at 0.05 µM,MV4-11 [24],17.5%
